US11793199B2, “Formulations and methods for controlling rootworm larvae” (FMC Corporation, priority 2016, dated 2023)

Tests used:
2nd instar WCRW = test: Residual activity of treated Midwestern soil kept in lab at 15% moisture (Example 5); assay type: in vivo, Diabrotica virgifera virgifera
Procedure: In order to induce seed germination prior to test initiation, corn seed was submerged in water for 12 h and then placed between layers of moistened paper towel for 72 h. Plastic Dart® containers (1 oz/30 ml) were utilized for the assay. Treatments included tetraniliprole Test Formula according to the present invention, Capture LFR® (bifenthrin), and Rugby® (cadusafos). A 60 g ai/ha foliar rate applied at a volume of 30GPA equates to 213.8 ppm. If this application rate was condensed into a 6″ T-band application that assumed a 30″ row spacing, the ppm rate would increase to 1069 ppm (213.8 ppm×5). Five rates were selected for the experimental treatment (Test Formula) and compared to a single rate of two standard treatments (Capture LFR and Rugby). Treatment solutions (Table 4) were mixed into dry, sifted, Midwestern soil, from Wyoming, Illinois, by adding 300mLs of solution into 2000 g of soil and equates to approximate 15% soil moisture value; soil clumped when pinched.
An estimated 0.75 cm of treated soil was placed into the bottom of each container, one germinated corn seed was placed onto the soil, and then the arenas were capped with a lid until rootworms were infested. Corn was covered with approximately 1.75 cm of treated soil. Using a fine tipped paint brush, 5 WCRW larvae (2nd instar) were transferred onto the soil of each replicate and then capped. There were 8 replicates and 40 larvae per treatment. Arenas containing soil, corn, and larvae were transferred into the Insectary room (≈23° C., 0 L:24D) and evaluated 6 days later for the presence of living larvae. Larvae not recovered within each arena were considered dead. Additional treated soil was maintained within a 5 gallon bucket, covered with aluminum […], and weights recorded. Additional water was added every Monday in order to maintain a 15% soil moisture level.
All mortality data was analyzed by ANOVA/GLM with an alpha of 0.1 (Minitab 16.0).

WCRW larvae = test: Residual activity of treated soil maintained outdoors, water pH 6, 7, 8 (Example 4); assay type: in vivo, Diabrotica virgifera virgifera
Procedure: A solution of the Test Formula A was prepared by making dilutions in water to form a solution. Dry, Midwestern soil was brought up to 15% moisture with treatment solutions (Table 5). Buckets of treated soil were carted outside daily between Monday and Friday and exposed to direct sunlight. Carts were not wheeled out on days that forecasted precipitation. At the end of each day, soil buckets were brought back into the laboratory, weighed, the appropriate amount of water added to the soil to bring it back up to 15% moisture, and covered overnight; daily records of weights and amount of water added to each bucket was recorded.
At 30DAT, 42DAT, 57DAT, and 85DAT, […] WCRW larvae were infested into treated soil containing and germinating corn seed and evaluated 6 days after infestation (6DAI) for percent control and larval stunting. There were 6 replicates per infestation date with 5 larvae per replicate (n=30). Treatments applied to dry Midwestern soil for assessment of residual WCRW included Test Formula at 67, 267, and 1,069 ppm, Capture LFR at 1988.5 and 3,977 ppm.

## tetraniliprole
2nd instar WCRW; 3.75 g ai/ha, 0 DAT
  size of larvae: approximately half the size as the untreated check
2nd instar WCRW; 15, 30, 60 g ai/ha, lab soil at 15% moisture
  control to 2nd instar WCRW larvae at 64DAT: ≥ 95%
2nd instar WCRW; all treated soils, 0 DAT
  larval stunting compared to the untreated check: Stunted larvae were detected
  protection to the root and shoot system of corn: evident
2nd instar WCRW; lab soil 15% moisture, 66.8 ppm (3.75 g ai/ha in-furrow), after 144 h within treated soil
  2nd instar WCRW: % Mortality 0DAT: < 80%
2nd instar WCRW; lab soil 15% moisture, 133.6 ppm (7.5 g ai/ha in-furrow), after 144 h within treated soil
  2nd instar WCRW: % Mortality 0DAT: < 80%
2nd instar WCRW; lab soil, 534.5 ppm (30 g ai/ha in-furrow), after 144 h
  2nd instar WCRW: % Mortality 0DAT: 97.5%
2nd instar WCRW; lab soil, 1069 ppm (60 g ai/ha in-furrow), after 144 h
  2nd instar WCRW: % Mortality 0DAT: 97.5%
WCRW larvae; 67 ppm (3.75 g ai/ha), soil kept outdoors, water pH 6, 7 or 8
  control to WCRW larvae: ≥ 87%
WCRW larvae; 67 ppm, 57 DAT and 85 DAT
  state of surviving larvae compared to the non-treated check: severely stunted
